According to patent US20230234906A1, “Use of 2-pentanone and specific receptor thereof in manufacture of products regulating cell functions” (Taihe Hospital, Hubei University of Medicine, priority 2022, published 2023):

Key:
[1] = target: T1, specific receptor Or35a and the specific receptor Or83b (Drosophila melanogaster, UniProt Q9V3Q2+Q9VNB5); test: Patch clamp experiment (whole-cell recordings) in neurons of mouse brain slices expressing the specific receptor of 2-pentanone; type: cell-based; settings: addition of 2-pentanone, 300 μm brain slices of C57 mice injected with Or35a/Or83b overexpression virus, FIG. 4B
T1 construct: P2A peptide (self-cleaving; remnant stays on the C-terminus of Or35a) (C); remnant stays on the C-terminus of Or83b) (C); expressed in transfected cells; acute brain slices
T1 sequence (Q9V3Q2 1-409): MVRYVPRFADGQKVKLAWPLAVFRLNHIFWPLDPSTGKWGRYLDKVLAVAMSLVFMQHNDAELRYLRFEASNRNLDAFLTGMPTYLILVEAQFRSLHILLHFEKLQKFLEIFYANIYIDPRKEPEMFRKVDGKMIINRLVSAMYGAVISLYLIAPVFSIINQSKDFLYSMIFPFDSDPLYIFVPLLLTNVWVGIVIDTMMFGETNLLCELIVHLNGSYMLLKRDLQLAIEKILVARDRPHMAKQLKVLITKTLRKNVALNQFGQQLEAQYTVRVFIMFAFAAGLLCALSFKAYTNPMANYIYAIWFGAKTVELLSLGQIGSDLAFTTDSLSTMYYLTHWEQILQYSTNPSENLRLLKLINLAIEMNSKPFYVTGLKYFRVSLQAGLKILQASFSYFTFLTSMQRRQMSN
T1 sequence (Q9VNB5 1-486): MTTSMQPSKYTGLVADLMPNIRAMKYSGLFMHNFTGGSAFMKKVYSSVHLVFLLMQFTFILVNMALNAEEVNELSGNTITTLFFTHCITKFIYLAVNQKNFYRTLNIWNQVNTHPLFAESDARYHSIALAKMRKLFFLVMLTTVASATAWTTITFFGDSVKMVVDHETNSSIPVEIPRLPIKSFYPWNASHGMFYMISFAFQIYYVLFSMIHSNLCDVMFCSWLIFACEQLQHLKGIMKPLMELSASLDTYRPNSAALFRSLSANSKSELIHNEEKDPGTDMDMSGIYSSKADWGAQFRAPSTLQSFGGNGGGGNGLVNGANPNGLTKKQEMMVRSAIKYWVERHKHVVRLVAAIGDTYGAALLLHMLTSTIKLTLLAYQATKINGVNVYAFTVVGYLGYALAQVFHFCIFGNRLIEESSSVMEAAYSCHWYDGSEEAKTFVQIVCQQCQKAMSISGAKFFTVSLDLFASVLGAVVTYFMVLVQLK
Procedure: 2. Patch clamp experiment: Adult C57 mice were anesthetized, fixed on a stereotaxic apparatus, and operated to expose the brain surface of the mice (1.5 mm behind the bregma, 1 mm aside, and injection depth of 2 mm). The overexpression virus (1 μl) constructed in Example 1 was injected into the mouse brain using a microinjector. After 2 weeks of feeding, the brains of mice were removed. The brain tissues at and near the injection site were cut into 300 μm tissue slices using a vibrating microtome and placed in artificial cerebrospinal fluid with a mixture of 5% CO2 and 95% 02, and after 1 h of incubation, the patch clamp experiment was performed. Using an Axon 700B amplifier, under infrared visualization, neurons with smooth surfaces and clear contours were selected for sealing, and whole-cell recordings were performed.

[2] = target: T1, specific receptor Or35a and the specific receptor Or83b; test: Calcium imaging experiment in mouse brain slices expressing the specific receptor of 2-pentanone; type: cell-based; settings: addition of 2-pentanone; 150 μm brain slices of C57 mice injected with Or35a/Or83b overexpression virus and calcium imaging virus; confocal microscope; FIG. 4A
Procedure: 1. Calcium imaging experiment: Adult C57 mice were anesthetized, fixed on a stereotaxic apparatus, and operated to expose the brain surface of the mice (1.5 mm behind the bregma, 1 mm aside, and injection depth of 2 mm). The overexpression virus (1 μl) constructed in Example 1 and the calcium imaging virus (0.5 μl) were simultaneously injected into the mouse brain using a microinjector. After 2 weeks of feeding, the brains of mice were removed. The brain tissues near the injection site were cut into 150 μm tissue slices using a vibrating microtome and placed in artificial cerebrospinal fluid with a mixture of 5% CO2 and 95% O2, and calcium imaging experiment was performed using a confocal microscope.

[3] = Verification of the arrival of 2-pentanone in cerebrospinal fluid (HPLC-MS of blood and cerebrospinal fluid after inhalation); type: in vivo, rats
Procedure: The specific method for detecting the arrival of 2-pentanone in cerebrospinal fluid in this test example included the following: rats were given 2-pentanone for 3 min, then blood and cerebrospinal fluid were drawn, immediately sealed and centrifuged at high speed to pellet red blood cells. The obtained cerebrospinal fluid and blood samples were subjected to HPLC-MS detection. Prior to detection, 100 μL of samples was taken and added with 400 μL of acetonitrile. The protein was separated by vortex and centrifuged at 14000 rpm for 10 min, and 100 μL of supernatant was used for HPLC-MS detection. […] It was confirmed by high performance liquid chromatography-mass spectrometry (HPLC-MS) that 2-pentanone could reach cerebrospinal fluid through blood rapidly (3 min) after inhaled by animals, and the concentration in cerebrospinal fluid decreased rapidly within 3-5 min after the inhalation was stopped.

## CCCC(C)=O [2-pentanone]
[1]
  neuronal firing rate: significantly increased
[2]
  intracellular calcium ion concentration: significantly increased
[3]; rats given 2-pentanone for 3 min by inhalation, HPLC-MS of cerebrospinal fluid
  time to reach cerebrospinal fluid through blood after inhalation: 3 min
[3]; rats, after inhalation was stopped, HPLC-MS
  time within which the concentration in cerebrospinal fluid decreased rapidly after the inhalation was stopped: 3 to 5 min
